Key:
Format in all cases: in vivo
[1] = tested on: Pancreatic juice secretion of the rat; test: Pancreatic juice secretion of the rat after subcutaneous administration of secretin with depot bodies; conditions: rat, subcutaneous, 5 CU/kg secretin + 10 mg depot body/animal
Experimental: Secretin preparations for subcutaneous application which contained the depot bodies specified in the following Table were tested in animal experiments. In the experimental procedure chosen, 5 to 8 male rats weighing 300 to 500 g each are administered subcutaneously 5 CU/kg of secretin (CU means clinical unit) and 10 mg of the depot body to be tested each in aqueous solution or suspension.
The animals remain without food for 18 hours prior to the test, but they are given water ad libitum. Under urethane anaesthesia (5 ml/kg i.m. of 25% urethane) the abdomen is opened by median section after tracheotomy, and the pylorus is ligated. The ductus choledochus is tied off in its proximal part near the porta hepatis, and the bile is led into the duodenum via a polyethylene tube of a diameter of […]. A cannula or catheter is inserted into the distal part of the bile duct, into which the numerous pancreatic ducts open, immediately before it opens into the duodenum, and the volume of the secretion running off is measured in 60 minute intervals. Following a preliminary run of 60 minutes the preparations are administered.
L means the compound known from literature and characterized by the melting point, optionally UV, IR or NMR. A to C relate to the preparation according to Example 1, process A to C. These compounds were characterized by ultimate analysis. The third column indicates the percentage by which the pancreatic secretion is above the basal secretion after 5 hours (calculated on the control=100%). This value is a measure for the depot effect of the depot body tested. Column 4 indicates the intensification of the secretin effect, with the total pancreatic juice secretion having been given over 5 hours as compared with the control (0.9% of NaCl)=1.

pancreatic juice = test: Pancreatic juice production in rats after rectal administration of secretin suppository with or without depot body
Experimental: The intensified effect of secretin in the form of rectally administrable preparations due to the depot bodies used according to the invention becomes evident from the drawing. In a test carried out on 8 rats each weighing 0.5 kg, 100 μg of secretin in a suppository of a weight of 73 mg cause the production of 92 μl of pancreatic juice (curve 1). With the addition of 25 mg of 3,5-dihydroxybenzoyl-L-tyrosine the volume of pancreatic juice rose to 1778 μl (curve 2). This corresponds to an increase of the effect to about 20 times its original value. […] In the present case the secretin dose has been chosen very high in order to obtain a measurable volume also without additive.
With a non-maximum stimulation in the normal dose range (about half the dose), the increase of the effect is about 50-fold.

[2] = tested on: pancreatic juice secretion; test: Biological effect of rectally administered secretin measured via pancreatic juice secretion, compared with subcutaneous injection; conditions: secretin in suppositories or rectal capsules without depot body
Experimental: Many medicaments may be incorporated in suppositories and administered rectally. They are sufficiently well absorbed in this form. […] For example, if secretin is administered by this route, the biological effect which is measured via pancreatic juice secretion is only about 1% of the effect obtained with subcutaneous injection.

[3] = rats, rectal, 100 μg secretin + 25 mg depot body

Molecule | Δ% vs. control (percentage by which the pancreatic secretion is above the basal secretion after 5 hours) ([1]; after 5 hours, control=100%, measure of depot effect) [%] | Rel. Intensity of effect over 5 hours (total pancreatic juice secretion over 5 hours as compared with control) ([1]; control (0.9% of NaCl)=1) | volume of pancreatic juice (pancreatic juice; 8 rats of 0.5 kg, rectal, 100 μg secretin suppository with addition of 25 mg depot body (curve 2)) [µL] | increase in efficacy, rectal versus subcutaneous application (in words) (pancreatic juice; comparison of routes) | increase of the effect relative to original value (secretin suppository without additive) (pancreatic juice; [3]) | protracted action (in words) (pancreatic juice; [3]) | increase of the effect (pancreatic juice; rectal, non-maximum stimulation in the normal dose range (about half the dose)) | production of pancreatic juice (pancreatic juice; 8 rats of 0.5 kg, rectal, 100 μg secretin in 73 mg suppository, no additive (curve 1)) [µL] | biological effect of rectal administration relative to effect obtained with subcutaneous injection [2]
O=C(N[C@@H](Cc1ccc(O)cc1)C(=O)O)c1cc(O)cc(O)c1 [3,5-Dihydroxybenzoyl-L-tyrosine] | 76 | 9.2 | 1778 | greater increase in efficacy when applied rectally than with subcutaneous application | about 20 times | a protracted action can also be observed | about 50 fold | – | –
secretin [reference compound] | – | – | – | – | – | – | – | 92 | about 1%

— patent US4302448A, “Secretin preparations with intensified and protracted action, process for their manufacture, their use as well as dihydroxybenzoyl-L-tyrosine” (Hoechst Aktiengesellschaft, priority 1979, dated 1981)
